As usually defined, the inhibition is the percentage by which the read-out fell short of the control. Broadly, the IC50 is the concentration needed to halve the response being measured. Broadly, the Ki is a dissociation constant, usually derived from enzyme kinetics or from competition with a known ligand.

Assay [1] deals with T1, Aldo-keto reductase family 1 member C21 (Mus musculus) (UniProt Q91WR5).
T1 sequence (whole entry): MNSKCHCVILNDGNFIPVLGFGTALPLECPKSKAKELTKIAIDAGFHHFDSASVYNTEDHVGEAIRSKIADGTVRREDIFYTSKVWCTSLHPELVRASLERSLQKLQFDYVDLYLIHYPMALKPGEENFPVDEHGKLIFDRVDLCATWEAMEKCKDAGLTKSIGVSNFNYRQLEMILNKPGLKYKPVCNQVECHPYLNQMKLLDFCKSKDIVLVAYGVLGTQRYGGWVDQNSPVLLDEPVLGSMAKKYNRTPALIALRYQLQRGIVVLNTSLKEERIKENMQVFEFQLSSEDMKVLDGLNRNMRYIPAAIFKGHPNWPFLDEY
As to the kind of experiment: Inhibition of mouse recombinant AKR1C21 at 12 uM.

Assay [2] has as its target Aldo-keto reductase family 1 member B1 (Homo sapiens, UniProt P15121). The assay is described as follows: Inhibition of human recombinant aldose reductase.
Assay [3] deals with T2, Aldo-keto reductase family 1 member C21 (Mus musculus, UniProt Q91WR5).
T2 sequence (Q91WR5 whole entry): T1 sequence (whole entry)
As to the kind of experiment: Inhibition of mouse recombinant AKR1C21.

With `O=c1cc(-c2ccccc2)oc2cc(O)cc(O)c12` [CHRYSIN], in assay [1], the inhibition amounted to 36%. Further, the concentration for half-maximal inhibition (IC50) in assay [2] came to 8.5 µM.
In the case of `O=C(O)Cc1nn(Cc2nc3cc(C(F)(F)F)ccc3s2)c(=O)c2ccccc12` [ZOPOLRESTAT], in assay [3], the half-inhibitory concentration (IC50) turned out to be 158 µM.
As to `O=c1c(O)c(-c2ccc(O)c(O)c2)oc2cc(O)cc(O)c12` [QUERCETIN], in assay [3], the half-inhibitory concentration (IC50) is 6.9 µM and the Ki was found to be 11 µM.
Take `C[C@@H]1O[C@@H](Oc2c(-c3ccc(O)c(O)c3)oc3cc(O)cc(O)c3c2=O)[C@H](O)[C@H](O)[C@H]1O` [QUERCITRIN]: in assay [3], the half-maximal inhibitory concentration (IC50) turned out to be 33.3 µM.
In the case of `COc1ccc2c(C(=S)N(C)CC(=O)O)cccc2c1C(F)(F)F` [TOLRESTAT], in assay [3], the half-maximal inhibitory concentration (IC50) came to 48 µM and the Ki was 22 µM.
Consider `O=C1CC2(C(=O)N1)C(=O)N(Cc1ccc(Br)cc1F)C(=O)c1ccc(F)cc12` (configuration not stated), for which, in assay [3], the IC50 is 27.5 µM and the inhibitory constant (Ki) is 10.4 µM.
On to `O=c1c(O)c(-c2cc(O)c(O)c(O)c2)oc2cc(O)cc(O)c12` [MYRICETIN], for which the IC50 was 12.3 µM in assay [3] and 29 µM in assay [2].

The values are drawn from ChEMBL document CHEMBL1143916, “Inhibition of 3(17)alpha-hydroxysteroid dehydrogenase (AKR1C21) by aldose reductase inhibitors” (Bioorg Med Chem, 2008).
